For test [1], the system named is M. tuberculosis (Mtb) strain H37Ra. Nature of the test: microbe, parasite or virus in culture. The test is classed as cell-based. The settings on record: Mycobacterium tuberculosis, read-out: MIC Mtb H37Ra.
The test system of test [2] is M. tuberculosis (Mtb) strain H37Rv. Nature of the test: microbe, parasite or virus in culture. The settings on record: Mycobacterium tuberculosis, H37RV. The test is classed as cell-based, Mycobacterium tuberculosis.
For test [3], the system named is M. smegmatis (Msmeg) strain mc^2155. Kind of test: microbe, parasite or virus in culture. The test is classed as cell-based. The conditions noted are these: Mycolicibacterium smegmatis, MC^2155, read-out: MIC M. smegmatis mc^2155.
The subject of test [4] is M. marinum (Mm) strain M (ATCC BAA-535). Nature of the test: microbe, parasite or virus in culture. Format: cell-based. The conditions noted are these: Mycobacterium marinum, ATCCBAA535, read-out: MIC M. marinum strain M.
For another test, the system named is CHO-K1 cells. Kind of test: cells. Format: cell-based, Chinese hamster (Cricetulus griseus). The settings on record: Cricetulus griseus, CHO-K1, 120 h, read-out: IC50 CHO-K1.
Test [5] deals with M. smegmatis DnaN (msDnaN) (Mycolicibacterium smegmatis, UniProt A0QND6). Nature of the test: biochemical. The test is classed as binding. The conditions noted are these: for Response (Average): MST source data, runs #1-#3, listed as MP B.
Another test relates to S. aureus Newman. Kind of test: microbe, parasite or virus in culture. The test is classed as cell-based. The settings on record: Staphylococcus aureus, read-out: MIC S. aureus Newman.
For a further test, the system named is B. subtilis DSM 10. Kind of test: microbe, parasite or virus in culture. The conditions noted are these: Bacillus subtilis, DSM10, read-out: MIC B. subtilis DSM 10. Format: cell-based.
In the next test the test system is E. coli BW25113. Nature of the test: microbe, parasite or virus in culture. Format: cell-based. The settings on record: Escherichia coli, BW25113, read-out: MIC E. coli BW25113.
The test system of another test is C. freundii DSM 30039. Kind of test: microbe, parasite or virus in culture. The test is classed as cell-based. The conditions noted are these: Citrobacter freundii, DSM30039, read-out: MIC C. freundii DSM 30039.
The test system of a further test is A. baumannii DSM 30008. Kind of test: microbe, parasite or virus in culture. The test is classed as cell-based. The settings on record: Acinetobacter baumannii, DSM30008, read-out: MIC A. baumannii DSM 30008.
The subject of test [6] is M. smegmatis mc^2155 GM^R. Nature of the test: microbe, parasite or virus in culture. The test is classed as cell-based. The settings on record: Mycolicibacterium smegmatis, MC^2155, read-out: MIC M. smegmatis mc^2155 GM^R.
In test [7] the target is T1, M. smegmatis DnaN (DNA polymerase III sliding clamp) (M. smegmatis mc^2155, UniProt A0QND6 1-397, labeled using Monolith Series Protein Labeling Kit BLUE-NHS).
T1 construct: also called msDnaN; DnaN from M. smegmatis mc^2155
T1 sequence (looked up): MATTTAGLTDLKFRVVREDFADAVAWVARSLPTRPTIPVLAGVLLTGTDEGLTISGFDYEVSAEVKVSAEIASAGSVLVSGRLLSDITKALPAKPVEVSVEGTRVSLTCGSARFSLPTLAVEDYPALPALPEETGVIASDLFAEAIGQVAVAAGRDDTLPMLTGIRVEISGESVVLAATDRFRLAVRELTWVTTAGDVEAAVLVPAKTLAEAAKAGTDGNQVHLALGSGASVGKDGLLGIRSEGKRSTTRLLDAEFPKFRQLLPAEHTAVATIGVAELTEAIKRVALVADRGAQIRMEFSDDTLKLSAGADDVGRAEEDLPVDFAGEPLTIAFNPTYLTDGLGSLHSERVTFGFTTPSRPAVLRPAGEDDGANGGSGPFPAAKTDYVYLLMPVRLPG
Nature of the test: MST; msDnaN labeled (BLUE-NHS) at 50 nM; compounds titrated in 16 serial dilution steps, triplicates; 20 mM Tris, 150 mM NaCl, 0.05% Tween-20; Monolith NT-115. The settings on record: both partners purified.

Values after ≈ are worked out from the molar mass of the structure shown. Values joined by “and” are separate entries in the source; they are usually repeats but may differ in a detail not shown here. Identical values can stand only once. Like-named read-outs stand apart in the source and are kept apart here. Numbered stars: 1 amine (or outer) side, 2 acyl side, 3 side chain; on linkers, the order of the positions; unused ones are H or OH. Bridge positions count the residues as written; N and C are the ends. Square brackets hold non-standard residues; d marks the D form. Ends that are not written are not given here. Peptide text beside a SMILES is read from it. * marks the point of attachment. ξ: configuration not given here. X2 = CCCC1CC(C(=O)[*:2])N([*:1])C1; Butanoyl(2-oxo) = CCC(=O)C(=O)*; NMeAhp(2) = CCCCC[CH](NC)C(=O)O; ξPro(4ξ-Me) = CC1CNC(C(=O)O)C1; NMeT = CN[CH](C(=O)O)[CH](C)O; NMeL = CN[CH](CC(C)C)C(=O)O; hLeu = CC(C)CC[CH](N)C(=O)O; NMeV = CN[CH](C(=O)O)C(C)C Where only a bound is given, the exact number is not on record here.

As usually defined, the IC50 is the concentration at which inhibition is half-maximal. Broadly, the Kd is the free concentration of one partner at which half of the binding sites on the other are occupied at equilibrium, for simple one-to-one binding. A low value points to a tighter complex.

`CCCCCC1C(=O)NCC(=O)OC(C)C(N(C)C(=O)C2CC(CCC)CN2C(=O)C(C(C)C)N(C)C(=O)C(=O)CC)C(=O)NC(CC(C)C)C(=O)N2CC(C)CC2C(=O)NC(CCC(C)C)C(=O)N(C)C(C(C)C)C(=O)N2CCCC2C(=O)N1C` (centres unmarked) [Mycoplanecin E] ({Butanoyl(2-oxo)}-[NMeV][X2][NMeT]L[ξPro(4ξ-Me)][hLeu][NMeV]P[NMeAhp(2)]G; ester 3-C; configuration not given here): the MIC in test [1] was 0.03 µg/mL (≈ 0.0248 µM); in [2] (read-out: MIC Mtb H37Rv) it was 0.083 µg/mL (≈ 0.0685 µM); in test [2] (read-out: minimum inhibition concentration against Mycobacterium tuberculosis), 0.083 µg/mL (≈ 0.0685 µM); in test [3] it was 0.125 µg/mL (≈ 0.103 µM); in test [4] it was 0.5 µg/mL (≈ 0.413 µM); in the test with S. aureus Newman it was greater than 64 µg/mL. The MIC with B. subtilis DSM 10, in the test on E. coli BW25113, in the test with C. freundii DSM 30039 and with A. baumannii DSM 30008 was greater than 64 µg/mL throughout. Also, the IC50 in the test with CHO-K1 cells was greater than 37 µg/mL. Besides, in test [5], the dissociation constant Kd came to 64.4 ± 33.2 nM.

As to `CCCC1CC(C(=O)N(C)C2C(=O)NC(CC(C)C)C(=O)N3CC(C)CC3C(=O)NC(CCC(C)C)C(=O)N(C)C(C(C)C)C(=O)N3CCCC3C(=O)N(C)C(CC(C)C)C(=O)NCC(=O)OC2C)N(C(=O)C(C(C)C)N(C)C(=O)C(=O)CC)C1` (centres unmarked) [Mycoplanecin D] ({Butanoyl(2-oxo)}-[NMeV][X2][NMeT]L[ξPro(4ξ-Me)][hLeu][NMeV]P[NMeL]G; ester 3-C; configuration not given here), the MIC in test [1] was 0.05 µg/mL (≈ 0.0418 µM); in test [2] (read-out: MIC Mtb H37Rv) it was 0.17 µg/mL (≈ 0.142 µM); in test [3], 0.25 µg/mL (≈ 0.209 µM); in [6], 8 µg/mL (≈ 6.68 µM); in [4] it was 1 µg/mL (≈ 0.835 µM); in the test with S. aureus Newman, greater than 64 µg/mL. The MIC with B. subtilis DSM 10, in the test with E. coli BW25113, in the test on C. freundii DSM 30039 and with A. baumannii DSM 30008 was greater than 64 µg/mL in each case. For the same molecule, the IC50 in the test with CHO-K1 cells is greater than 37 µg/mL. This molecule also came in with a Kd in test [5] of 134 ± 69.3 nM.

As for `CCC(=O)C(=O)N(C)C(C(=O)N1CC(C)CC1C(=O)N(C)C1C(=O)NC(CC(C)C)C(=O)N2CC(C)CC2C(=O)NC(CCC(C)C)C(=O)N(C)C(C(C)C)C(=O)N2CCCC2C(=O)N(C)C(CC(C)C)C(=O)NCC(=O)OC1C)C(C)C` (centres unmarked) [Mycoplanecin B], the MIC in [1] is 0.1 µg/mL (≈ 0.0855 µM); in [2] (read-out: MIC Mtb H37Rv) it was 0.43 µg/mL (≈ 0.368 µM); in test [3], 0.5 µg/mL (≈ 0.428 µM); in [6] it was 8 µg/mL (≈ 6.84 µM); in test [4], 2 µg/mL (≈ 1.71 µM); in the test on S. aureus Newman, greater than 64 µg/mL. The MIC in the test on B. subtilis DSM 10, with E. coli BW25113, with C. freundii DSM 30039 and in the test with A. baumannii DSM 30008 was greater than 64 µg/mL throughout. The IC50 in the test with CHO-K1 cells is greater than 37 µg/mL. Moreover, the Kd in test [5] stood at 24.4 ± 11.9 nM. For the same molecule, the “Response (Average)” value in test [5] (Dose 1.22E-08 (unit not given)) is 897.348 and 900.943 and 911.516; in test [5] (Dose 1.25E-05 (unit not given)), 906.572 and 909.169 and 909.706; in [5] (Dose 1.53E-09 (unit not given)), 896.843 and 900.134 and 899.613; in test [5] (Dose 1.56E-06 (unit not given)), 907.358 and 910.005 and 911.362; in test [5] (Dose 1.95E-07 (unit not given)), 905.084 and 913.604 and 911.242; in [5] (Dose 2.44E-08 (unit not given)), 897.582 and 904.128 and 903.123. The “Response (Average)” value was 906.786 and 911.734 and 910.009 in test [5] (Dose 2.50E-05 (unit not given)); 897.958 and 898.601 and 900.671 in test [5] (Dose 3.05E-09 (unit not given)); 907.585 and 910.886 and 909.908 in test [5] (Dose 3.13E-06 (unit not given)); 908.074 and 910.248 and 909.115 in test [5] (Dose 3.91E-07 (unit not given)); 897.616 and 904.939 and 909.25 in [5] (Dose 4.88E-08 (unit not given)); 906.528 and 909.788 and 910.069 in test [5] (Dose 5.00E-05 (unit not given)). Also, the “Response (Average)” value in test [5] (Dose 6.10E-09 (unit not given)) was 894.937 and 899.128 and 901.665; in test [5] (Dose 6.25E-06 (unit not given)) it was 905.496 and 910.338 and 909.682; in [5] (Dose 7.81E-07 (unit not given)), 907.246 and 909.231 and 910.996; in [5] (Dose 9.77E-08 (unit not given)) it was 902.534 and 911.539 and 911.215.

Molecule VPTLPLVPLG (also: macrocycle, 4-methylproline twice, positions not placed) [griselimycin] had an equilibrium dissociation constant (Kd) in test [7] of 6.5 nM.
